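1) Cells in 96-well plates. 2) Compound, 48 h, 5 concentrations. 3) Linear interpolation between surrounding doses. 4) Unreached endpoint = highest concentration. TGI: total growth inhibition.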
Experiments:
Experiment in all cases: NCI-60 cell line screen, 48 h
HL-60(TB) leukemia = tested on: HL-60(TB) leukemia
CCRF-CEM leukemia = tested on: CCRF-CEM leukemia
OVCAR-8 ovarian = tested on: OVCAR-8 ovarian
LOX IMVI melanoma = tested on: LOX IMVI melanoma
KM12 colon = tested on: KM12 colon
PC-3 prostate = tested on: PC-3 prostate
UACC-257 melanoma = tested on: UACC-257 melanoma
SNB-75 CNS = tested on: SNB-75 CNS
OVCAR-5 ovarian = tested on: OVCAR-5 ovarian
OVCAR-3 ovarian = tested on: OVCAR-3 ovarian
SK-MEL-2 melanoma = tested on: SK-MEL-2 melanoma
MDA-N = tested on: MDA-N
NCI/ADR-RES ovarian = tested on: NCI/ADR-RES ovarian
SW-620 colon = tested on: SW-620 colon
SF-539 CNS = tested on: SF-539 CNS
NCI-H460 lung = tested on: NCI-H460 lung
A549 NSCLC = tested on: A549 NSCLC
HS 578T breast = tested on: HS 578T breast
HCT-116 colon = tested on: HCT-116 colon
MALME-3M melanoma = tested on: MALME-3M melanoma
NCI-H226 lung = tested on: NCI-H226 lung
RPMI-8226 leukemia = tested on: RPMI-8226 leukemia
HT29 colon = tested on: HT29 colon
TK-10 renal = tested on: TK-10 renal
HOP-92 NSCLC = tested on: HOP-92 NSCLC
SF-268 CNS = tested on: SF-268 CNS
MDA-MB-435 = tested on: MDA-MB-435
NCI-H23 lung = tested on: NCI-H23 lung
RXF 393 renal = tested on: RXF 393 renal
HCC-2998 colon = tested on: HCC-2998 colon
ACHN renal = tested on: ACHN renal
MCF7 breast = tested on: MCF7 breast
NCI-H522 lung = tested on: NCI-H522 lung
U251 CNS = tested on: U251 CNS
MOLT-4 leukemia = tested on: MOLT-4 leukemia
SR leukemia = tested on: SR leukemia
DU-145 prostate = tested on: DU-145 prostate
HCT-15 colon = tested on: HCT-15 colon
COLO 205 colon = tested on: COLO 205 colon
OVCAR-4 ovarian = tested on: OVCAR-4 ovarian
IGROV1 ovarian = tested on: IGROV1 ovarian
MDA-MB-231 breast = tested on: MDA-MB-231 breast
K-562 leukemia = tested on: K-562 leukemia
HOP-62 NSCLC = tested on: HOP-62 NSCLC
CAKI-1 renal = tested on: CAKI-1 renal
A498 renal = tested on: A498 renal
EKVX NSCLC = tested on: EKVX NSCLC
BT-549 breast = tested on: BT-549 breast
SK-MEL-28 melanoma = tested on: SK-MEL-28 melanoma
SK-MEL-5 melanoma = tested on: SK-MEL-5 melanoma
SF-295 CNS = tested on: SF-295 CNS
UO-31 renal = tested on: UO-31 renal
786-0 renal = tested on: 786-0 renal
SN12C renal = tested on: SN12C renal
UACC-62 melanoma = tested on: UACC-62 melanoma
M14 melanoma = tested on: M14 melanoma
SK-OV-3 ovarian = tested on: SK-OV-3 ovarian

CC1(C)N=C2C(=O)c3c([nH]c4ccccc34)[C@]3(C)CCC1CC23 (stereo partly drawn)
TGI (HL-60(TB) leukemia): > 6.25 µM | TGI (CCRF-CEM leukemia): > 6.25 µM | TGI (OVCAR-8 ovarian): > 6.25 µM | TGI (LOX IMVI melanoma): > 6.25 µM | TGI (KM12 colon): > 6.25 µM | TGI (PC-3 prostate): > 6.25 µM | TGI (UACC-257 melanoma): > 6.25 µM | TGI (SNB-75 CNS): > 6.25 µM | TGI (OVCAR-5 ovarian): > 6.25 µM | TGI (OVCAR-3 ovarian): > 6.25 µM | TGI (SK-MEL-2 melanoma): > 6.25 µM | TGI (MDA-N): > 6.25 µM | TGI (NCI/ADR-RES ovarian): > 6.25 µM | TGI (SW-620 colon): > 6.25 µM | TGI (SF-539 CNS): > 6.25 µM | TGI (NCI-H460 lung): > 6.25 µM | TGI (A549 NSCLC): > 6.25 µM | TGI (HS 578T breast): > 6.25 µM | TGI (HCT-116 colon): > 6.25 µM | TGI (MALME-3M melanoma): > 6.25 µM | TGI (NCI-H226 lung): > 6.25 µM | TGI (RPMI-8226 leukemia): > 6.25 µM | TGI (HT29 colon): > 6.25 µM | TGI (TK-10 renal): > 6.25 µM | TGI (HOP-92 NSCLC): > 6.25 µM | TGI (SF-268 CNS): > 6.25 µM | TGI (MDA-MB-435): > 6.25 µM | TGI (NCI-H23 lung): > 6.25 µM | TGI (RXF 393 renal): > 6.25 µM | TGI (HCC-2998 colon): > 6.25 µM | TGI (ACHN renal): > 6.25 µM | TGI (MCF7 breast): > 6.25 µM | TGI (NCI-H522 lung): > 6.25 µM | TGI (U251 CNS): > 6.25 µM | TGI (MOLT-4 leukemia): > 6.25 µM | TGI (SR leukemia): > 6.25 µM | TGI (DU-145 prostate): > 6.25 µM | TGI (HCT-15 colon): > 6.25 µM | TGI (COLO 205 colon): > 6.25 µM | TGI (OVCAR-4 ovarian): > 6.25 µM | TGI (IGROV1 ovarian): > 6.25 µM | TGI (MDA-MB-231 breast): > 6.25 µM | TGI (K-562 leukemia): > 6.25 µM | TGI (HOP-62 NSCLC): > 6.25 µM | TGI (CAKI-1 renal): > 6.25 µM | TGI (A498 renal): > 6.25 µM | TGI (EKVX NSCLC): > 6.25 µM | TGI (BT-549 breast): > 6.25 µM | TGI (SK-MEL-28 melanoma): > 6.25 µM | TGI (SK-MEL-5 melanoma): > 6.25 µM | TGI (SF-295 CNS): > 6.25 µM | TGI (UO-31 renal): > 6.25 µM | TGI (786-0 renal): > 6.25 µM | TGI (SN12C renal): > 6.25 µM

Cc1cccc(/C(Br)=C2/OC(=O)c3ccccc32)c1
TGI (CCRF-CEM leukemia): > 100 µM | TGI (OVCAR-8 ovarian): > 100 µM | TGI (KM12 colon): > 100 µM | TGI (PC-3 prostate): > 100 µM | TGI (UACC-257 melanoma): > 100 µM | TGI (SNB-75 CNS): > 100 µM | TGI (OVCAR-5 ovarian): > 100 µM | TGI (OVCAR-3 ovarian): > 100 µM | TGI (MDA-N): > 100 µM | TGI (SW-620 colon): > 100 µM | TGI (SF-539 CNS): > 100 µM | TGI (NCI-H460 lung): > 100 µM | TGI (A549 NSCLC): > 100 µM | TGI (HS 578T breast): > 100 µM | TGI (HCT-116 colon): > 100 µM | TGI (MALME-3M melanoma): > 100 µM | TGI (RPMI-8226 leukemia): > 100 µM | TGI (HT29 colon): > 100 µM | TGI (TK-10 renal): > 100 µM | TGI (HOP-92 NSCLC): > 100 µM | TGI (SF-268 CNS): > 100 µM | TGI (MDA-MB-435): > 100 µM | TGI (NCI-H23 lung): > 100 µM | TGI (RXF 393 renal): > 100 µM | TGI (HCC-2998 colon): > 100 µM | TGI (ACHN renal): > 100 µM | TGI (MCF7 breast): > 100 µM | TGI (NCI-H522 lung): > 100 µM | TGI (U251 CNS): > 100 µM | TGI (MOLT-4 leukemia): > 100 µM | TGI (SR leukemia): > 100 µM | TGI (DU-145 prostate): > 100 µM | TGI (HCT-15 colon): > 100 µM | TGI (COLO 205 colon): > 100 µM | TGI (OVCAR-4 ovarian): > 100 µM | TGI (IGROV1 ovarian): > 100 µM | TGI (HOP-62 NSCLC): > 100 µM | TGI (CAKI-1 renal): > 100 µM | TGI (A498 renal): > 100 µM | TGI (UACC-62 melanoma): > 100 µM | TGI (EKVX NSCLC): > 100 µM | TGI (M14 melanoma): > 100 µM | TGI (BT-549 breast): > 100 µM | TGI (SK-OV-3 ovarian): > 100 µM | TGI (SK-MEL-28 melanoma): > 100 µM | TGI (SK-MEL-5 melanoma): > 100 µM | TGI (SF-295 CNS): > 100 µM | TGI (786-0 renal): > 100 µM | TGI (SN12C renal): > 100 µM

— PubChem BioAssay (NCI)
